Key:
[1] = system: MK-801-induced working memory deficit in rats; test: Radial arm maze (RAM) test, MK-801-induced working memory deficit; type: in vivo, rat; details: given 0.5 h before MK-801 0.08 mg/kg, s.c.
Description: RAM tests were performed using 9-week-old male Long-Evans rats as previously described with a minor modification. Each arm was 50 cm long, 10 cm wide and 40 cm high, and the maze was elevated 50 cm above the floor. Long-Evans rats were food-restricted to 85% of free-feeding body weight throughout the experimental period. Rats were well trained to collect pellets placed on the edge of each arm. The learning criterion for the testing session was defined as 2 errors or fewer for 2 consecutive days. In the testing session, each rat was placed on the maze facing the fixed arm at the start of the trial. The entry of rats into each arm was recorded in sequence until all pellets in the 8 arms were consumed, or 5 min had elapsed. […] Thirty min after dosing of vehicle or MK-801, rats were placed on the maze. Details are described in the Supplementary Information.
The experiment was performed using 9-week-old male Long-Evans rats as described previously (Zajaczkowski et al., 1996) with a minor modification. Each arm was 50 cm long, 10 cm wide and 40 cm high, and the maze was elevated 50 cm above the floor. After being fasted for 24 h, male Long-Evans rats were food-restricted to 85% of free-feeding body weight on the first day of exposure to the maze and throughout the experimental period. The experiment consists of two sessions, training and testing session. In the training session, rats were habituated to the maze and then trained. Reinforcement consisted of 3 food pellets (45 mg each) in the food cup was used. On the first day of habituation to the maze, reinforcements were placed near the entrance and at the mid-point of each arm. Three rats were placed on the maze at one time and allowed to explore and consume the pellets for 8 min. On the second day of habituation, each rat was placed on the maze and allowed 5 min to consume the pellets placed at the mid-point and in the food cup at the end of each arm. From the third day, reinforcement was placed in the food cup at the end of each arm. Rats were well trained to collect pellets placed on the edge of each arm. The learning criterion for the testing session was defined as 2 errors or less for two consecutive days. In the previous day of the testing session, baseline level of performance was qualified to confirm that rats completed collecting all pellets placed in the 8 arms with two errors or less. In the testing session, each rat was placed on the maze facing away from the experimenter and facing the fixed arm at the start of the trial. The entry of rats into each arm was recorded in sequence. Rats were allowed to explore until all pellets in the 8 arms were consumed, or 5 min had elapsed. Entry into an arm previously chosen was counted as an error. […] […] Thirty min after dosing of vehicle or MK-801, rats were placed on the maze. Data were indicated as the mean ± SEM in the testing session.

naïve rats = test: Novel object recognition (NOR) test; type: in vivo, rat; details: p.o., rats
Description: NOR tests were performed using male Long-Evans rats at 6 weeks old as previously described, with some modifications. On day 1, rats were allowed to habituate to the empty test box (a gray-colored polyvinyl chloride box (40 × 40 × 50 cm)) for 10 min individually. Testing comprised two 3-min trials called the acquisition trial and the retention trial that were separated by 48 h inter-trial intervals (ITIs). On day 2, in the acquisition trial, rats were allowed to explore two identical objects (A1 and A2) for 3 min. On day 4, in the retention trial, rats were again allowed to explore a familiar object (A3) and a novel object (B) for 3 min. The object exploration was defined as rats' licking, sniffing or touching the object with forelimbs while sniffing. TAK-653 or AMPA was orally or intraperitoneally, respectively, 2 h or 0.5 h prior to the acquisition and the retention trials. The NDI was calculated using the following equation: novel object interaction/total interaction × 100 (%).

AMPA-R = test: Ca2+ influx assay using rat primary hippocampal neurons; type: cell-based
Description: Ca^2+ influx assay using primary neurons was performed as previously described. After 5 days of culture, the cells plated on poly-D-lysine coated 96-well plates (Corning Incorporated) at 2 × 10^4 or 5 × 10^4 cells/well were used for experiments with PF-04958242 or TAK-653, respectively. Fluorescent calcium indicator dye solution (Calcium4 assay Kit, Dojindo, Kumamoto, Japan) in Ca^2+ reaction buffer (DMEM, HEPES and BSA) containing Probenecid (Dojindo) was added and incubated for 60 min in 5% CO2 at 37 °C. After washing once, the relative increases in intracellular Ca^2+ levels stimulated by compounds in the presence and absence of AMPA were monitored. Details are described in the Supplementary Information.
Primary cultures of hippocampal neuronal cells were prepared from fetal Sprague-Dawley rats at 19 days of gestation. Rat embryos were decapitated and their whole brains were isolated. Hippocampi were dissected in ice-cold Hanks' Balanced Salt Solutions (HBSS) under a microscope and then dispersed into cells using a neural cell dispersion kit (Sumitomo Bakelite Co., Ltd., Tokyo, Japan). The dissociated cells were suspended in Neurobasal medium containing B27 supplement (Thermo Fisher Scientific Inc.), 2 mM L-glutamine (Lonza, Basel, Switzerland), 100 U/mL penicillin (Lonza), 100 μg/mL streptomycin (Lonza) and 20 μg/mL gentamicin sulfate (Lonza). The cells were plated on poly-D-lysine coated 96-well plates (Corning Incorporated) for Ca^2+ influx assay or on poly-L-lysine coated 96-well plates (Sumitomo Bakelite) for measurement of BDNF protein levels and cultured in a humidified CO2 incubator with 5% CO2 at 37°C.
After 5 days of culture, the cells at 2×10^4 or 5×10^4 cells/well were used for experiments with PF-04958242 or TAK-653, respectively. For TAK-653, after removal of culture medium, 75 µL of fluorescent calcium indicator dye solution (Calcium4 assay Kit, Dojindo, Kumamoto, Japan) in Ca^2+ reaction buffer (DMEM, 10 mM HEPES and 0.1% BSA) containing 1.25 mM Probenecid (Dojindo) was added and incubated for 60 min in 5% CO2 at 37°C and washed once using 75 µL of fluorescent calcium indicator dye solution. After addition of 75 µL of fluorescent calcium indicator dye solution to each well again, the relative increases in intracellular Ca^2+ levels by compounds in the presence and absence of 5 μM AMPA were monitored for 8.5 min by fluorometric imaging plate reader. Activity of the compound was defined as fluorescence intensity integrated over the entire period of measurement. Intensity of 0% was defined as activity in the presence of only DMSO, while 100% was defined as activity in the presence of 5 μM AMPA and 10 μM HBT1. For PF-04958242, after removal of culture medium, 90 µL of fluorescent calcium indicator dye solution (Calcium4 assay Kit, Dojindo) in Ca^2+ reaction buffer (DMEM, 20 mM HEPES and 0.1% BSA) containing 2.5 mM Probenecid (Dojindo) was added and incubated for 60 min in 5% CO2 at 37°C. After addition of 90 µL of fluorescent calcium indicator dye solution to each well again, the relative increases in intracellular Ca^2+ levels by compounds in the presence and absence of 1 μM AMPA were monitored for 2 min in a microplate reader (CellLux, PerkinElmer, Waltham, MA, USA). Activity of the compound was defined as fluorescence intensity integrated over the entire period of measurement. 100% was defined as activity in the presence of 1 μM AMPA and 10 μM HBT1, while intensity of 0% was defined as activity in the presence of 1 μM AMPA or only DMSO for potentiator effect or agonistic effect, respectively. EC50 values were calculated by logistic regression analysis.

CC(C)S(=O)(=O)N[C@H]1COC[C@H]1Oc1ccc(-c2ccc(C#N)s2)cc1 [PF-04958242, N-{(3S,4S)-4-[4-(5-cyano-2-thienyl)phenoxy]tetrahydrofuran-3-yl}propane-2-sulfonamide]
Working memory in the RAM test [1]: did not improve | Dose improving visual learning and memory in NOR test (naïve rats): ≥ 0.1 mg/kg | Agonistic effect: Ca2+ increase in the absence of AMPA (AMPA-R): potently produced a Ca^2+ increase in the absence of AMPA
